Measured values: patent publication US9113629B2, “4-amino-6-(4-substituted-phenyl)-picolinates and 6-amino-2-(4-substituted-phenyl)-pyrimidine-4-carboxylates and their use as herbicides” (DOW AGROSCIENCES LLC, priority 2013, dated 2015)
Where two headings read alike, the source gives them in different places.

Tests used:
[1] = tested on: Key Grass and Sedge Weeds as well as Grass Crops; experiment: Post-emergent Test II herbicidal activity (Table 6); assay type: in vivo; conditions: post-emergence, 336 h; for pest or weed control at 70 g/ha: application rate 70 g ai/ha; for pest or weed control at 140 g/ha: application rate 140 g ai/ha
Method in brief: (§1)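 Visual injury ratings (0 = no injury, 100 = complete kill) were taken 14 d after treatment, relative to untreated plants. Seedlings at the first–second true leaf stage received overhead spray at 187 L/ha; the highest rate was serially diluted to ½×, ¼×, ⅛× and 1/16×.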

[2] = tested on: Key Broadleaf Weed and Crop Species; experiment: Post-emergent Test II herbicidal activity (Table 5); assay type: in vivo; conditions: post-emergence, 336 h, post-emergent, 14 days after application; for pest or weed control at 70 g/ha: 70 g ai/ha; for pest or weed control at 140 g/ha: 140 g ai/ha
Method in brief: as §1

[3] = Triticum aestivum, TRZSS (wheat), read-out: Visual Growth Reduction (%) 14 Days After Application, TRZSS
[4] = CYPES: yellow nutsedge (Cyperus esculentus), read-out: Visual Growth Reduction (%) 14 Days After Application, CYPES
[5] = DIGSA: crabgrass (Digitaria sanguinalis), read-out: Visual Growth Reduction (%) 14 Days After Application, DIGSA
[6] = ECHCG: barnyardgrass (Echinochloa crus-galli), read-out: Visual Growth Reduction (%) 14 Days After Application, ECHCG
[7] = ORYSA: rice (Oryza sativa), read-out: Visual Growth Reduction (%) 14 Days After Application, ORYSA
[8] = SETFA: giant foxtail (Setaria faberi), read-out: Visual Growth Reduction (%) 14 Days After Application, SETFA
[9] = SORVU: grain sorghum (Sorghum vulgare), read-out: Visual Growth Reduction (%) 14 Days After Application, SORVU
[10] = ZEAMX: maize, corn (Zea mays), read-out: Visual Growth Reduction (%) 14 Days After Application, ZEAMX
[11] = ABUTH: velvetleaf (Abutilon theophrasti), read-out: Visual Growth Reduction (%) 14 Days After Application ABUTH
[12] = AMARE: redroot pigweed (Amaranthus retroflexus), read-out: Visual Growth Reduction (%) 14 Days After Application AMARE
[13] = BRSNN: oilseed-rape, canola (Brassica napus), read-out: Visual Growth Reduction (%) 14 Days After Application BRSNN
[14] = CHEAL: lambsquarters (Chenopodium album), read-out: Visual Growth Reduction (%) 14 Days After Application CHEAL
[15] = EPHHL: wild poinsettia (Euphorbia heterophylla), read-out: Visual Growth Reduction (%) 14 Days After Application EPHHL
[16] = HELAN: sunflower (Helianthus annuus), read-out: Visual Growth Reduction (%) 14 Days After Application HELAN
[17] = VIOTR: wild pansy (Viola tricolor), read-out: Visual Growth Reduction (%) 14 Days After Application VIOTR

SMILES	pest or weed control at 70 g/ha [1, 3] [%]	pest or weed control at 140 g/ha [1, 3] [%]	pest or weed control at 70 g/ha [1, 4] [%]	pest or weed control at 140 g/ha [1, 4] [%]	pest or weed control at 70 g/ha [1, 5] [%]	pest or weed control at 140 g/ha [1, 5] [%]	pest or weed control at 70 g/ha [1, 7] [%]	pest or weed control at 140 g/ha [1, 7] [%]	pest or weed control at 70 g/ha [1, 8] [%]	pest or weed control at 140 g/ha [1, 8] [%]	pest or weed control at 70 g/ha [1, 9] [%]	pest or weed control at 140 g/ha [1, 9] [%]	pest or weed control at 70 g/ha [1, 10] [%]	pest or weed control at 140 g/ha [1, 10] [%]	pest or weed control at 70 g/ha [2, 11] [%]	pest or weed control at 140 g/ha [2, 11] [%]	pest or weed control at 70 g/ha [2, 12] [%]	pest or weed control at 140 g/ha [2, 12] [%]	pest or weed control at 70 g/ha [2, 13] [%]	pest or weed control at 140 g/ha [2, 13] [%]	further results
Nc1cc(-c2ccc(Br)cc2F)nc(C(=O)O)c1Cl [Compound 74]	45 to 59	60 to 74	95 to 100	95 to 100	85 to 94	85 to 94	0 to 29	30 to 44	75 to 84	85 to 94	85 to 94	85 to 94	75 to 84	75 to 84	95 to 100	95 to 100	95 to 100	95 to 100	85 to 94	85 to 94	pest or weed control at 70 g/ha [1, 6]: 85 to 94%; pest or weed control at 140 g/ha [1, 6]: 85 to 94%; pest or weed control at 70 g/ha [2, 14]: 95 to 100%; pest or weed control at 140 g/ha [2, 14]: 95 to 100%; pest or weed control at 70 g/ha [2, 15]: 95 to 100%; pest or weed control at 140 g/ha [2, 15]: 95 to 100%; pest or weed control at 70 g/ha [2, 16]: 95 to 100%; pest or weed control at 140 g/ha [2, 16]: 95 to 100%; pest or weed control at 70 g/ha [2, 17]: 95 to 100%; pest or weed control at 140 g/ha [2, 17]: 95 to 100%; melting point: 186 to 187.3 °C
Nc1c(Cl)c(C(=O)O)nc(-c2ccc(Br)cc2)c1Cl [Compound 125]	60 to 74	60 to 74	95 to 100	95 to 100	60 to 74	60 to 74	0 to 29	0 to 29	85 to 94	95 to 100	60 to 74	85 to 94	60 to 74	60 to 74	95 to 100	95 to 100	95 to 100	95 to 100	95 to 100	95 to 100	pest or weed control at 70 g/ha [2, 14]: 95 to 100%; pest or weed control at 140 g/ha [2, 14]: 95 to 100%; pest or weed control at 70 g/ha [2, 15]: 30 to 44%; pest or weed control at 140 g/ha [2, 15]: 45 to 59%; pest or weed control at 70 g/ha [2, 16]: 95 to 100%; pest or weed control at 140 g/ha [2, 16]: 95 to 100%; pest or weed control at 70 g/ha [2, 17]: 0 to 29%; pest or weed control at 140 g/ha [2, 17]: 0 to 29%; melting point: 164.9 to 166.1 °C
C=Cc1c(C(=O)O)nc(-c2ccc(Br)cc2)c(F)c1N [Compound 117]	0 to 29	0 to 29	95 to 100	95 to 100	0 to 29	0 to 29	45 to 59	45 to 59	0 to 29	45 to 59	85 to 94	85 to 94	45 to 59	60 to 74	95 to 100	95 to 100	95 to 100	95 to 100	75 to 84	75 to 84	pest or weed control at 70 g/ha [1, 6]: 75 to 84%; pest or weed control at 140 g/ha [1, 6]: 75 to 84%; pest or weed control at 70 g/ha [2, 14]: 95 to 100%; pest or weed control at 140 g/ha [2, 14]: 95 to 100%; pest or weed control at 70 g/ha [2, 15]: 95 to 100%; pest or weed control at 140 g/ha [2, 15]: 95 to 100%; pest or weed control at 70 g/ha [2, 16]: 85 to 94%; pest or weed control at 140 g/ha [2, 16]: 85 to 94%; pest or weed control at 70 g/ha [2, 17]: 0 to 29%; pest or weed control at 140 g/ha [2, 17]: 0 to 29%; melting point: 149 to 151 °C
COC(=O)c1nc(-c2cc(F)c(I)cc2F)c(Br)c(N)c1Cl [Compound 100]	30 to 44	60 to 74	0 to 29	0 to 29	45 to 59	60 to 74	0 to 29	0 to 29	0 to 29	0 to 29	0 to 29	0 to 29	0 to 29	45 to 59	85 to 94	85 to 94	85 to 94	95 to 100	60 to 74	60 to 74	pest or weed control at 70 g/ha [1, 6]: 0 to 29%; pest or weed control at 140 g/ha [1, 6]: 0 to 29%; pest or weed control at 70 g/ha [2, 14]: 95 to 100%; pest or weed control at 140 g/ha [2, 14]: 95 to 100%; pest or weed control at 70 g/ha [2, 15]: 45 to 59%; pest or weed control at 140 g/ha [2, 15]: 45 to 59%; pest or weed control at 70 g/ha [2, 16]: 85 to 94%; pest or weed control at 140 g/ha [2, 16]: 85 to 94%; pest or weed control at 70 g/ha [2, 17]: 0 to 29%; pest or weed control at 140 g/ha [2, 17]: 0 to 29%; melting point: 145 to 147 °C
